# Measured values reported in publication PMC6982808, “Design and Biological Evaluation of Colchicine-CD44-Targeted Peptide Conjugate in an In Vitro Model of Crystal Induced Inflammation” (Molecules, 2019).
# Ends that are not written are not given here.
# Columns and labels:
# [1] = system: CD44 receptor on THP-1 macrophages; experiment: CD44 surface expression on THP-1 macrophages under conditions of inflammation (flow cytometry); type: cell-based, human; conditions: 24 h, serum-free medium
# Experimental: THP-1 monocytes were cultured in RPMI 1640 medium supplemented with 10% heat-inactivated FBS, 10 mM HEPES, 2 mM glutamine, 100 U/I penicillin, and 100 μg/mL streptomycin and maintained at 37 °C and 5% CO2. THP-1 monocytes were differentiated into THP-1 macrophages using 50 ng/mL phorbol-12-myristate 13-acetate (PMA) for 24 h. Subsequently, adherent cells were washed twice with serum-free medium and rested for another 24 h in PMA-free RPMI + 10% FBS medium. CD44 expression on THP-1 macrophages was conducted using flow cytometry following incubation with the CD44-specific antibody (1:1000 dilution) for 1 h followed by cell pelleting and washing the cell pellet with PBS. THP-1 macrophages were then incubated with DyLight 488 goat anti-mouse IgG at 1:1000 dilution for 30 min. […] THP-1 macrophages were washed with PBS, collected, and CD44 expression was determined using flow cytometry as described above.
# [2] = target: T1, recombinant human CD44 receptor (Homo sapiens, UniProt P16070); experiment: ELISA binding of coated P6 peptide or HA to CD44-IgG Fc fusion protein; conditions: for binding to the CD44 receptor (ELISA absorbance at 450 nm): wells coated 1 ng/mL to 1 μg/mL, CD44-IgG Fc 0.1 µg/mL, 1 h room temperature, three independent experiments
# T1 construct: purchased R&D Systems
# T1 sequence (P16070 with tags, fused parts or gaps limits assumed): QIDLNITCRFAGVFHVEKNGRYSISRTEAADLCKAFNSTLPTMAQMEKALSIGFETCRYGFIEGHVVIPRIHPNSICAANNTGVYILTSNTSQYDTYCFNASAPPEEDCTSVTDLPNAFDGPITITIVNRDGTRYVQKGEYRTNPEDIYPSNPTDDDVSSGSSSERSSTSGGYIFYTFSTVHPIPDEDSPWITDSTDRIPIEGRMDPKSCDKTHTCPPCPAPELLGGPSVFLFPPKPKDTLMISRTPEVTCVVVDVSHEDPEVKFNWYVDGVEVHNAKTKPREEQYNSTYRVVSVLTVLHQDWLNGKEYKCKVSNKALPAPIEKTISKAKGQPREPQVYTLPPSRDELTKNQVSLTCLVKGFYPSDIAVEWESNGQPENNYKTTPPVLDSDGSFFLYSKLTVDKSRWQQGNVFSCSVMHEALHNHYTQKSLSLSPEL
# Experimental: Wells of high-binding microtiter plates were coated with either the P6 peptide or high molecular weight HA (molecular weight >1 million Da) in serial concentrations between 1 ng/mL and 1 μg/mL overnight in phosphate buffered saline (PBS) (100 µL per well) at 4 °C. […] CD44-IgG Fc fusion protein (R&D Systems) (0.1 µg/mL) in PBS + 0.05% Tween 20 (100 µL per well) was added to both coated and uncoated wells and incubated for 1 h at room temperature. Following washing with PBS + 0.1% Tween 20, anti-human IgG Fc-HRP (1:1000) was added and incubated at room temperature for 1 h, followed by washing three times with PBS + 0.05% Tween 20. Turbo TMB-ELISA substrate solution was added (100 µL per well), and absorbance intensity was determined at 450 nm. Absorbance values in the […] to adjust for any non-specific binding by CD44-IgFc.
# THP-1 macrophages [3] = experiment: Cytotoxicity against THP-1 macrophages (Cell Counting Kit-8); conditions: 24 h, CCK-8; for cytotoxic effect against THP-1 macrophages (in words): 1, 10 and 25 μM, three independent experiments
# Experimental: Subsequently, 10 μL of CCK-8 solution was added to each well and absorbance was measured 90 min later at 450 nm. Cytotoxicity was expressed as the percentage of viable cells following treatments.
# THP-1 macrophages [4] = experiment: MSU crystal phagocytosis by THP-1 macrophages (flow cytometry side-scatter, % cells in P2 region); type: cell-based, human
# Experimental: THP-1 macrophages (500,000 cells per well) were treated with MSU crystals (100 μg/mL) ± HA (100 μg/mL) for 4 h. Subsequently, macrophages were collected, pelleted, and washed with PBS. MSU phagocytosis was determined by analyzing the change in cell side-scatter using a flow cytometer. Two regions of interest were identified: the P1 region representing the THP-1 macrophage population in the absence of MSU crystal exposure and the P2 region with increased cell side scatter indicative of MSU phagocytosis. Data are presented as the percentage of cells in the P2 region across different experimental groups.
# Subsequently, cells were treated with MSU crystals (100 μg/mL) for 4 h. MSU phagocytosis by THP-1 macrophages was determined using flow cytometry as described above.
# THP-1 macrophages [5] = experiment: ROS generation in MSU-stimulated THP-1 macrophages (flow cytometry); type: cell-based, human; conditions: 10 and 25 μM, 24 h, then MSU 100 μg/mL 6 h; vs MSU alone
# Experimental: (§1) THP-1 macrophages (500,000 cells per well) were treated with MSU crystals (100 μg/mL) for 2, 4, and 6 h. ROS staining solution (1:1000 ratio) was added to the wells and incubated for 1 h. Subsequently, cells were collected, washed, and cell-associated fluorescence was determined using flow cytometry. Media were collected at 2, 4, and 6 h, and IL-8 media concentrations were determined by ELISA. […] Subsequently, cells were treated with MSU crystals (100 μg/mL) for 6 h. ROS generation and IL-8 concentrations were determined as described above.
# THP-1 macrophages [6] = experiment: IL-8 secretion by MSU-stimulated THP-1 macrophages (ELISA); type: cell-based, human; conditions: 1, 10 and 25 μM, 24 h, then MSU 100 μg/mL 6 h; vs MSU alone
# Experimental: as §1
# in vitro = conditions: human, cerebrospinal or other body fluid
# Experimental: Using seven microcentrifuge tubes, a total of 50 μL of normal SF was diluted with 150 μL of PBS in each tube. Following equilibrating diluted SF to 37 ± 1 °C for 15 min, 50 μL of peptide stock solution (1 mM solution in 100% sterile water) was added to each tube. Next, at different time intervals (0, 1, 2, 3, 4, 6, and 24 h), an aliquot of the reaction solution (100 μL) was sampled. Cold methanol (200 μL) was added to each aliquot in order to precipitate proteins that were present in the SF. This was followed by cooling the solution to 4 °C for 15 min followed by centrifugation at 500 g for 15 min to precipitate SF proteins. To determine the proteolytic stability of the P6 peptide, the supernatant was injected into an analytical RP-HPLC C18 column. In order to measure the concentration of the P6 peptide isolated from SF, the area under the curve (AUC) of the P6 peptide at each time point was estimated using an average of four runs, and normalized to AUC values at time 0 and expressed as the percentage of AUC at time 0.
compound,measurement,setting,value
"IL-1β: recombinant human IL-1β, proinflammatory cytokine",enhancement in cell surface CD44 protein staining compared to untreated control macrophages,[1]; IL-1β 10 ng/mL,approximately two-fold
WYKGDKFLYLQNGIEAIADF-NH2 [P6 peptide],difference between P6 peptide and HA binding to CD44,[2]; across all coating concentrations 1 ng/mL to 1 μg/mL,no significant difference
same,binding to the CD44 receptor (ELISA absorbance at 450 nm),[2],concentration-dependent binding
same,cytotoxic effect against THP-1 macrophages (in words),THP-1 macrophages [3],no cytotoxic effect
same,MSU phagocytosis by THP-1 macrophages,"THP-1 macrophages [4]; 10 and 25 μM, 24 h pre-treatment, then MSU 100 μg/mL 4 h, vs MSU alone",significantly reduced MSU phagocytosis
same,ROS generation,THP-1 macrophages [5],reduced
same,IL-8 secretion,THP-1 macrophages [6],reduced
same,half-life at 200 μM,in vitro,~4 h
COc1cc2c(c(OC)c1OC)-c1ccc(OC)c(=O)cc1[C@@H](NC(C)=O)CC2 [colchicine],reduction of macrophage cell viability,THP-1 macrophages [3]; 1 μM,approximately 50%
same,reduction of macrophage cell viability,THP-1 macrophages [3]; 25 μM,approximately 80%
same,cytotoxic effect against THP-1 macrophages (in words),THP-1 macrophages [3],dose-dependent cytotoxic effect
same,MSU phagocytosis by THP-1 macrophages,"THP-1 macrophages [4]; 1, 10 and 25 μM, 24 h pre-treatment, then MSU 100 μg/mL 4 h, vs MSU alone",reduced MSU phagocytosis
same,ROS generation,THP-1 macrophages [5],reduced
same,IL-8 secretion,THP-1 macrophages [6],reduced
"O=c1[nH]c(=O)c2[nH]c(=O)[nH]c2[nH]1 [UA, uric acid]",enhancement in cell surface CD44 protein staining compared to untreated control macrophages,[1]; UA 10 mg/dL,approximately 3 fold
hyaluronic acid [HA],binding to the CD44 receptor (ELISA absorbance at 450 nm),[2],concentration-dependent binding
same,MSU phagocytosis by THP-1 macrophages,THP-1 macrophages [4]; 100 μg/mL co-treatment with MSU 100 μg/mL for 4 h,significantly reduced MSU phagocytosis
